Patent publication US12319672B2, “Alpha-D-galactopyranoside derivatives” (Idorsia Pharmaceuticals Ltd, priority 2019, dated 2025)

Tests used:
human Gal-3 (hGal-3) = human Gal-3 (hGal-3) (Homo sapiens (Human), UniProt P17931); experiment: Competitive binding assay: binding of biotinylated hGal-3 to microplate-adsorbed asialofetuin (ASF); conditions: Activity on hGal-3; mean values of several measurements
In short: (§1)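 For hGal-1, a variant with all six cysteines replaced by serines is preferred. Either galectin, biotinylated at 300-1000 ng/mL, competes with compound for microplate-bound ASF over 3 h at 4° C; peroxidase/ABTS detection gives IC50, averaged.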

human Gal-1 (hGal-1) = experiment: Competitive binding assay: binding of biotinylated hGal-1 to microplate-adsorbed asialofetuin (ASF); conditions: Activities on hGal-1; mean values of several measurements
human Gal-1 (hGal-1), sequence (P09382 2-135 limits assumed): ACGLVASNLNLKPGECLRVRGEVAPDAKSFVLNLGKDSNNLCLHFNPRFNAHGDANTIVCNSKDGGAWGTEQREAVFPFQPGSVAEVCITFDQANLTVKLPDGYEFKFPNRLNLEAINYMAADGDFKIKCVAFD
In short: as §1

human Gal-3 (hGal-3), sequence (P17931 whole entry): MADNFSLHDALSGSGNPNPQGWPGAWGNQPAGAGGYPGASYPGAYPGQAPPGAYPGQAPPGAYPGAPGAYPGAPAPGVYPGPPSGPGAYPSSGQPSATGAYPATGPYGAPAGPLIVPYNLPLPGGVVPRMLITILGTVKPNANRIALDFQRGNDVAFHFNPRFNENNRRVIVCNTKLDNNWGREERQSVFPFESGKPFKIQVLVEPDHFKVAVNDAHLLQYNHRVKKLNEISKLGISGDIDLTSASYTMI

| IC50 (human Gal-3 (hGal-3)) | IC50 (human Gal-1 (hGal-1)) | Structure (SMILES) |
| --- | --- | --- |
| 160 nM | 1600 nM | CO[C@@H]1[C@@H](n2cc(-c3cc(F)c(F)c(F)c3)nn2)[C@@H](O)[C@@H](CO)O[C@@H]1Cn1cc(C2(C)CCOCC2)nn1 [Example 4.51, (2R,3R,4S,5R,6R)-2-(hydroxymethyl)-5-methoxy-6-((4-(4-methyltetrahydro-2H-pyran-4-yl)-1H-1,2,3-triazol-1-yl)methyl)-4-(4-(3,4,5-trifluorophenyl)-1H-1,2,3-triazol-1-yl)tetrahydro-2H-pyran-3-ol] |
| 53 nM | 730 nM | CO[C@@H]1[C@@H](n2cc(-c3ccc(C)c(F)c3F)nn2)[C@@H](O)[C@@H](CO)O[C@@H]1Cc1cn(C(C)(C)C)nn1 [Example 4.52, (2R,3R,4S,5R,6R)-6-((1-(tert-butyl)-1H-1,2,3-triazol-4-yl)methyl)-4-(4-(2,3-difluoro-4-methylphenyl)-1H-1,2,3-triazol-1-yl)-2-(hydroxymethyl)-5-methoxytetrahydro-2H-pyran-3-ol] |
| 34 nM | 750 nM | CO[C@@H]1[C@@H](n2cc(-c3ccc(Cl)c(F)c3F)nn2)[C@@H](O)[C@@H](CO)O[C@@H]1Cc1cn(C(C)(C)C)nn1 [Example 4.53, (2R,3R,4S,5R,6R)-6-((1-(tert-butyl)-1H-1,2,3-triazol-4-yl)methyl)-4-(4-(4-chloro-2,3-difluorophenyl)-1H-1,2,3-triazol-1-yl)-2-(hydroxymethyl)-5-methoxytetrahydro-2H-pyran-3-ol] |
| 46 nM | 1500 nM | CO[C@@H]1[C@@H](n2cc(-c3ccc(C)c(F)c3F)nn2)[C@@H](O)[C@@H](CO)O[C@@H]1Cn1cc(C(C)(C)C)nn1 [Example 4.54, (2R,3R,4S,5R,6R)-6-((4-(tert-butyl)-1H-1,2,3-triazol-1-yl)methyl)-4-(4-(2,3-difluoro-4-methylphenyl)-1H-1,2,3-triazol-1-yl)-2-(hydroxymethyl)-5-methoxytetrahydro-2H-pyran-3-ol] |
| 31 nM | 950 nM | CO[C@@H]1[C@@H](n2cc(-c3ccc(Cl)c(F)c3F)nn2)[C@@H](O)[C@@H](CO)O[C@@H]1Cn1cc(C(C)(C)C)nn1 [Example 4.55, (2R,3R,4S,5R,6R)-6-((4-(tert-butyl)-1H-1,2,3-triazol-1-yl)methyl)-4-(4-(4-chloro-2,3-difluorophenyl)-1H-1,2,3-triazol-1-yl)-2-(hydroxymethyl)-5-methoxytetrahydro-2H-pyran-3-ol] |
| 330 nM | 300 nM | CO[C@@H]1[C@@H](n2cc(-c3cc(F)c(F)c(F)c3)nn2)[C@@H](O)[C@@H](CO)O[C@@H]1C[C@@H]1CN(C2CCN(C(C)=O)CC2)C(=O)O1 [Example 5.05, (R)-3-(1-acetylpiperidin-4-yl)-5-(((2R,3R,4S,5R,6R)-5-hydroxy-6-(hydroxymethyl)-3-methoxy-4-(4-(3,4,5-trifluorophenyl)-1H-1,2,3-triazol-1-yl)tetrahydro-2H-pyran-2-yl)methyl)oxazolidin-2-one] |
| 96 nM | 270 nM | CO[C@@H]1[C@@H](n2cc(-c3cc(F)c(F)c(F)c3)nn2)[C@@H](O)[C@@H](CO)O[C@@H]1C[C@H]1CN(C2CCN(C(C)=O)CC2)C(=O)O1 [Example 5.06, (S)-3-(1-acetylpiperidin-4-yl)-5-(((2R,3R,4S,5R,6R)-5-hydroxy-6-(hydroxymethyl)-3-methoxy-4-(4-(3,4,5-trifluorophenyl)-1H-1,2,3-triazol-1-yl)tetrahydro-2H-pyran-2-yl)methyl)oxazolidin-2-one] |
| 280 nM | 7570 nM | CO[C@@H]1[C@@H](n2cc(-c3cc(F)c(F)c(F)c3)nn2)[C@@H](O)[C@@H](CO)O[C@@H]1C[C@H]1CN(C2CCN(S(C)(=O)=O)CC2)C(=O)O1 [Example 5.07, (S)-5-(((2R,3R,4S,5R,6R)-5-hydroxy-6-(hydroxymethyl)-3-methoxy-4-(4-(3,4,5-trifluorophenyl)-1H-1,2,3-triazol-1-yl)tetrahydro-2H-pyran-2-yl)methyl)-3-(1-(methylsulfonyl)piperidin-4-yl)oxazolidin-2-one] |
| 18 nM | 160 nM | CO[C@@H]1[C@@H](n2cc(-c3cc(F)c(F)c(F)c3)nn2)[C@@H](O)[C@@H](CO)O[C@@H]1C[C@@H]1CN(C2CCN(S(C)(=O)=O)CC2)C(=O)O1 [Example 5.08, (R)-5-(((2R,3R,4S,5R,6R)-5-hydroxy-6-(hydroxymethyl)-3-methoxy-4-(4-(3,4,5-trifluorophenyl)-1H-1,2,3-triazol-1-yl)tetrahydro-2H-pyran-2-yl)methyl)-3-(1-(methylsulfonyl)piperidin-4-yl)oxazolidin-2-one] |
| 130 nM | 1000 nM | CO[C@@H]1[C@@H](n2cc(-c3cc(F)c(F)c(F)c3)nn2)[C@@H](O)[C@@H](CO)O[C@@H]1C[C@H]1CN(C2CCN(C(=O)C(C)C)CC2)C(=O)O1 [Example 5.12, (S)-5-(((2R,3R,4S,5R,6R)-5-hydroxy-6-(hydroxymethyl)-3-methoxy-4-(4-(3,4,5-trifluorophenyl)-1H-1,2,3-triazol-1-yl)tetrahydro-2H-pyran-2-yl)methyl)-3-(1-isobutyrylpiperidin-4-yl)oxazolidin-2-one] |

More lines, now with the values behind:

| Structure (SMILES) | IC50 (human Gal-3 (hGal-3)) | IC50 (human Gal-1 (hGal-1)) |
| --- | --- | --- |
| CO[C@@H]1[C@@H](n2cc(-c3cc(F)c(F)c(F)c3)nn2)[C@@H](O)[C@@H](CO)O[C@@H]1Cn1cc(C2=CCCC2)nn1 [Example 4.42, (2R,3R,4S,5R,6R)-6-((4-(cyclopent-1-en-1-yl)-1H-1,2,3-triazol-1-yl)methyl)-2-(hydroxymethyl)-5-methoxy-4-(4-(3,4,5-trifluorophenyl)-1H-1,2,3-triazol-1-yl)tetrahydro-2H-pyran-3-ol] | 790 nM | 2620 nM |
| CO[C@@H]1[C@@H](n2cc(-c3cc(F)c(F)c(F)c3)nn2)[C@@H](O)[C@@H](CO)O[C@@H]1Cn1cc(C2(O)CCC2)nn1 [Example 4.43, (2R,3R,4S,5R,6R)-6-((4-(1-hydroxycyclobutyl)-1H-1,2,3-triazol-1-yl)methyl)-2-(hydroxymethyl)-5-methoxy-4-(4-(3,4,5-trifluorophenyl)-1H-1,2,3-triazol-1-yl)tetrahydro-2H-pyran-3-ol] | 300 nM | 4430 nM |
| CO[C@@H]1[C@@H](n2cc(-c3cc(F)c(F)c(F)c3)nn2)[C@@H](O)[C@@H](CO)O[C@@H]1Cn1cc(C(C)(C)O)nn1 [Example 4.44, (2R,3R,4S,5R,6R)-2-(hydroxymethyl)-6-((4-(2-hydroxypropan-2-yl)-1H-1,2,3-triazol-1-yl)methyl)-5-methoxy-4-(4-(3,4,5-trifluorophenyl)-1H-1,2,3-triazol-1-yl)tetrahydro-2H-pyran-3-ol] | 240 nM | 15000 nM |
| CO[C@@H]1[C@@H](n2cc(-c3cc(F)c(F)c(F)c3)nn2)[C@@H](O)[C@@H](CO)O[C@@H]1Cc1cn(C(C)(C)C)nn1 [Example 4.45, (2R,3R,4S,5R,6R)-6-((1-(tert-butyl)-1H-1,2,3-triazol-4-yl)methyl)-2-(hydroxymethyl)-5-methoxy-4-(4-(3,4,5-trifluorophenyl)-1H-1,2,3-triazol-1-yl)tetrahydro-2H-pyran-3-ol] | 85 nM | 1120 nM |
| CO[C@@H]1[C@@H](n2cc(-c3ccc(F)c(F)c3F)nn2)[C@@H](O)[C@@H](CO)O[C@@H]1Cc1cn(C(C)(C)C)nn1 [Example 4.46, (2R,3R,4S,5R,6R)-6-((1-(tert-butyl)-1H-1,2,3-triazol-4-yl)methyl)-2-(hydroxymethyl)-5-methoxy-4-(4-(2,3,4-trifluorophenyl)-1H-1,2,3-triazol-1-yl)tetrahydro-2H-pyran-3-ol] | 45 nM | 310 nM |
| CO[C@@H]1[C@@H](n2cc(-c3cc(F)c(F)c(F)c3)nn2)[C@@H](O)[C@@H](CO)O[C@@H]1Cn1cc(C2(O)CCCCC2)nn1 [Example 4.47, (2R,3R,4S,5R,6R)-6-((4-(1-hydroxycyclohexyl)-1H-1,2,3-triazol-1-yl)methyl)-2-(hydroxymethyl)-5-methoxy-4-(4-(3,4,5-trifluorophenyl)-1H-1,2,3-triazol-1-yl)tetrahydro-2H-pyran-3-ol] | 330 nM | 3060 nM |
| CO[C@@H]1[C@@H](n2cc(-c3cc(F)c(F)c(F)c3)nn2)[C@@H](O)[C@@H](CO)O[C@@H]1Cn1cc(C2CCCC2)nn1 [Example 4.48, (2R,3R,4S,5R,6R)-6-((4-cyclopentyl-1H-1,2,3-triazol-1-yl)methyl)-2-(hydroxymethyl)-5-methoxy-4-(4-(3,4,5-trifluorophenyl)-1H-1,2,3-triazol-1-yl)tetrahydro-2H-pyran-3-ol] | 250 nM | 2860 nM |
| CO[C@@H]1[C@@H](n2cc(-c3cc(F)c(F)c(F)c3)nn2)[C@@H](O)[C@@H](CO)O[C@@H]1Cn1cc(C2(C)CCCC2)nn1 [Example 4.49, (2R,3R,4S,5R,6R)-2-(hydroxymethyl)-5-methoxy-6-((4-(1-methylcyclopentyl)-1H-1,2,3-triazol-1-yl)methyl)-4-(4-(3,4,5-trifluorophenyl)-1H-1,2,3-triazol-1-yl)tetrahydro-2H-pyran-3-ol] | 240 nM | 3930 nM |
| CO[C@@H]1[C@@H](n2cc(-c3cc(F)c(F)c(F)c3)nn2)[C@@H](O)[C@@H](CO)O[C@@H]1Cn1cc(C2(C#N)CCCC2)nn1 [Example 4.50, 1-(1-(((2R,3R,4S,5R,6R)-5-hydroxy-6-(hydroxymethyl)-3-methoxy-4-(4-(3,4,5-trifluorophenyl)-1H-1,2,3-triazol-1-yl)tetrahydro-2H-pyran-2-yl)methyl)-1H-1,2,3-triazol-4-yl)cyclopentane-1-carbonitrile] | 330 nM | 4290 nM |
